Measurements: a melting point compilation (Tetko et al.; mined from patent text by program, amines drawn as free bases though some values may be those of a salt)

Compound	melting point
COc1cccc(-c2ccccc2C(=O)Nc2ccc(Cl)cc2)c1	123 to 124 °C
CCOC(=O)NCCCCc1ccccc1	60 to 61 °C
CC(C)C[C@H](NC(=O)[C@H](CS)C(F)(F)F)c1nnn[nH]1	183 to 184 °C
CCCCc1nc(C(=O)CCC)c(C#N)[nH]1	91 to 92 °C
CC(C)(C)C12OOC1(c1cc3cc(O[Si](C)(C)C(C)(C)C)ccc3o1)OCC2(C)C (stereo not given)	117 to 118 °C
COc1ccc(C2=NN(C(C)C)C(=O)[C@H]3CCCC[C@@H]23)cc1OC (relative stereo)	79 to 81 °C
ClCc1csc(N2CCOCC2)n1	87 to 88 °C
CC1(C)C(=O)Nc2ccc(C#N)cc2N(CC2CC2)C1=O	234 to 236 °C
COc1ccc2cc(C(=O)C34CC5CC(CC(C5)C3)C4)oc2c1	99 to 101 °C
O=c1ccn([C@H]2[C@H](O)[C@H](O)CC[C@H]2O)c(=O)[nH]1 (racemic)	246 °C
CCCCCCCCCCc1ccc(C(=O)CCCCC(=O)O)cc1	84 to 85 °C
COc1ccccc1Oc1c(NS(=O)(=O)c2ccc(CC(C)C)cc2)nc(-c2ncccn2)nc1OCCOC(N)=O	138 to 140 °C
CCN(C(C)=O)c1ccc2c(c1)Cc1c-2[nH]c2ccccc12	232 °C
COC(=O)c1ccc(CN2CC2C#N)c(OC)n1 (stereo not given)	156 to 158 °C
CC(=O)CSC1=CC(=O)CC(c2ccccc2Cl)C1 (stereo not given)	81 to 82 °C
C=C1SC(=O)N(c2ccc3cc(-c4ccc(O)c(C(C)(C)C)c4)ccc3c2)C1=O	276 to 278 °C
O=C(O)CNC(=Nc1ccc(C(=O)O)cc1)NCC1CCCCC1	164 °C
O=C1CCN(Cc2cccnc2)C(=O)C1=C1SC=CS1	132 to 133 °C
COc1cc(C#N)ccc1C	51 to 52.5 °C
COc1ccc(-c2nc(-c3nccn3Cc3ccccc3)[nH]c2-c2ccc(OC)cc2)cc1	180 °C
O=C(OCCS(=O)(=O)CCCOCCc1ccccc1)c1ccccc1	65.5 °C
CNC(=O)[C@@H]1C[C@@H](OC)CN1C(=O)OCc1ccccc1	45 to 47 °C
Nc1ncc2cc(-c3ccccn3)c(N)nc2n1	312 to 321 °C
CNCc1cccc(C2CCN(c3cc4c(cc3F)c(=O)c(C(=O)O)cn4C3CC3)C2)c1 (stereo not given)	239 to 240 °C
OCC1OC(n2cnc3c(NCC4(c5cccc(Cl)c5)CCC4)ncnc32)C(O)C1O (stereo not given)	92 to 98 °C

Compound	melting point
Cc1ccc2nc(O)c(O)nc2c1	> 300 °C
O=C(NC1CCCc2sccc21)N1CCOCC1 (stereo not given)	152 to 154 °C
Cc1cc(O)c2cccc(OCc3ccccc3)c2n1	155 to 164 °C
COc1ccc(/C=C/c2c(Cl)cncc2Cl)cc1OC1CCCC1	99 to 101 °C
NC1=NC(c2ccc(O)cc2)(c2cccc(-c3cccnc3F)c2)C2=NCCCN12 (stereo not given)	164 to 181 °C
COC(=O)c1sc2c(c1O)CSC2	133 to 137 °C
CC(=O)c1cc(N2CCCC2)ccc1NC(=O)c1cccc2c1OCO2	139 to 141 °C
O=C1c2cccc(N(CCO)CCO)c2OC12CC2	74 to 76 °C
COc1ccc(NC(=O)c2ccc(Cl)c(Cl)c2)cc1Nc1cccc(C(F)(F)F)c1	151 to 152 °C
O=C(NCCCCCCOC(=O)Oc1ccc([N+](=O)[O-])cc1)Oc1ccc(Oc2ccccc2)cc1	102 to 104 °C
CCOC(=O)c1cc2cccc(N(C)S(=O)(=O)c3nccn3C)c2[nH]1	120 °C
Cc1ccc2cccc(OCc3c(Cl)ccc(N(C)C(=O)CNC(=O)C=Cc4ccc(-c5nnn[nH]5)cc4)c3Cl)c2n1	196 to 208 °C
N#CCc1ccc([N+](=O)[O-])c(OCc2ccccc2)c1	73 to 85 °C
CC(=O)Oc1cc(C)cc2c1C1=C(CCC(C)C1)C(C)(C)O2 (stereo not given)	115 to 119 °C
COC(=O)c1cc(Oc2ccc([N+](=O)[O-])cc2)ccc1OC	115 to 118 °C
CC(=O)OC(c1cccc(Cl)c1Cl)C(Cl)(Cl)C(F)(F)F (stereo not given)	92 to 95 °C
Cc1ccc(C(=O)Nc2cc(-n3ccnc3C)cc(C(F)(F)F)c2)cc1Nc1nccc(-c2cccnc2)n1	242 to 247 °C
CCN(CC)C(=O)OCC1CN(C(=O)c2cc(OC)c(OC)c(OC)c2)CCN1C(=O)c1cc(OC)c(OC)c(OC)c1 (stereo not given)	95.1 °C
N#CC1(N)CCc2ccc3ccccc3c2C1 (stereo not given)	75 to 78 °C
O=C(/C=C/c1ccc(C(F)(F)F)cc1-c1cccnc1)Nc1cnc2ccccc2c1	196 to 199 °C
COC(=O)c1cc2scc(Br)c2nc1C(=O)OC	165 to 168 °C
O=C(c1c[nH]c2cc(C#Cc3ccccc3)ccc12)C1CSC(c2cccnc2)N1 (stereo not given)	103 to 107 °C
CN1CCN(c2nc(N)c3c(n2)CCCS3)CC1	140 to 141 °C
CN(C)c1ccc(-c2cc(=S)ss2)nn1	265 °C
Oc1ccc2c(c1)CCCC(c1ccccc1)=C2c1ccc(OCCCCSCCCC(F)(F)C(F)(F)F)cc1	167 °C
